Data published in US10342796B2, “Acrylanilide derivative, preparation method, and applications thereof in pharmacy” (Ancureall Pharmaceutical (Shanghai) Co., Ltd., priority 2015, dated 2019).
Read-outs that look alike come from different tables or passages of the source.

What was measured:
Assay in all cases: Growth inhibition GI50 in vitro (CCK8/MTT, 72 h)
Assay type in all cases: cell-based, human
H1975 (EGFR L858R/T790M) = conditions: EGFR mutant cell line, range of GI50, read-out: GI50 H1975
HCC827 (EGFR dE746-A750) = conditions: EGFR mutant cell line, range of GI50, read-out: GI50 HCC827
PC-9 (EGFR dE746-A750) = conditions: EGFR mutant cell line, range of GI50, read-out: GI50 PC-9
[1] = tested on: PC-9ER (EGFR delE746-A750/T790M); conditions: EGFR mutant cell line, range of GI50, read-out: GI50 PC9ER
N87 (HER2 Amp) = conditions: HER2 positive cell line, range of GI50, read-out: GI50 N87
AU565 (Her2 amp) = conditions: HER2 positive cell line, range of GI50, read-out: GI50 AU-565
SK-BR-3 (Her2 amp) = conditions: HER2 positive cell line, range of GI50, read-out: GI50 SK-BR-3
Protocol: Human lung adenocarcinoma cell line Calu-3 (ATCC) was cultured with 1×MEM complete medium (10% FBS, 1% double-antibiotics, 1% NEAA (Gibco), 2 mM glutamine and 1 mM of sodium pyruvate). Human breast cancer cell line SK-BR-3 was cultured with McCOY'S5A complete medium (10% FBS). Human colon cancer cell line SNU1040 (HER2 V777M positive) (ATCC) and human bronchoalveolar adenocarcinoma cell line NCI-H1781 (expressing HER2 exon 20 G776VC mutation) (ATCC) were cultured with 1×RPMI1640 complete medium (10% FBS), respectively.
The suspension cells were collected by centrifugation. The supernatant was discard and the cell pellet was resuspended and counted. Different cell concentrations (5˜10×10^4 cells/mL) were prepared according to the growth cycle of each cell line and then seeded on a 96-well plate (Corning), 100 μL/well. The cells were incubated over night at 37° C., 5% CO2. The compounds were added to the cells on the second day with 2 wells in parallel. The final concentration of organic solvent shall not exceed 1%. The cells were continually incubated for 72 h, and then subjected to MTT assay.
The present compounds and the reference compounds were dissolved with DMSO (Sigma), respectively. […] The storage concentration of compounds was 10 mM and kept at −20° C. They were diluted by 2 times or 10 times with serial dilution before using.
Dojindo CCK8 reagent kit was used as MTT assay. […] FC meter was used as microplate reader.
Adherent cell culture medium was discard and immediately replaced with fresh prepared medium which contains 10% CCK8 reagent (100 μL/well). For the suspension cells, CCK8 was directly added to 10% of the final concentration. The cells were continually incubated for 1˜4 h. When the color of control wells turned to dark yellow, the absorption value was measured at OD450 nm. The cell growth rate was calculated according to the following formula: cell growth rate (%)=100*(T−T0)/(C−T0), T=optical density of drug treatment cell well—optical density of blank control well; T0=optical density of cell well before drug treatment—optical density of blank control well; C=optical density of cell well of solvent control group—optical density of blank control well. […] The experiment was independently repeated 1˜3 times, and subject to biological statistical analysis.

[2] = tested on: A431 (EGFR WT, amplification and high expression); conditions: EGFR wild type cell line, range of GI50, read-out: GI50 A431
A549 (EGFR WT) = conditions: EGFR wild type cell line, range of GI50, read-out: GI50 A549
[3] = tested on: H1299 (EGFR wt, Nras Q61K); conditions: EGFR wild type cell line, range of GI50, read-out: GI50 H1299
[4] = tested on: H460 (EGFR wt, Kras G61H); conditions: EGFR wild type cell line, range of GI50, read-out: GI50 H460

SMILES	GI50 (H1975 (EGFR L858R/T790M); Homo sapiens, NCI-H1975) [nM]	GI50 (HCC827 (EGFR dE746-A750); Homo sapiens, HCC827) [nM]	GI50 (PC-9 (EGFR dE746-A750); Homo sapiens) [nM]	GI50 ([1]; Homo sapiens, PC-9/ER) [nM]	GI50 (N87 (HER2 Amp); Homo sapiens) [nM]	GI50 (AU565 (Her2 amp); Homo sapiens, AU565) [nM]	GI50 (SK-BR-3 (Her2 amp); Homo sapiens, SK-BR-3) [nM]	GI50 ([2]; Homo sapiens, A-431) [nM]	GI50 (A549 (EGFR WT); Homo sapiens, A549) [nM]	GI50 ([3]; Homo sapiens, NCI-H1299) [nM]	GI50 ([4]; Homo sapiens, NCI-H460) [nM]	also measured
C#Cc1cccc(Nc2ccnc(Nc3cc(NC(=O)C=C)c(N(C)CCN(C)C)cc3OC)n2)c1 [Compound 8, N-(5-(4-(3-acetenyl-phenylamino)-pyrimidin-2-ylamino)-2-(2-(dimethylamino-ethyl)-methyl-amino)-4-methoxyl-phenyl)-acrylamide]	–	–	–	–	–	–	–	–	–	–	–	GI50 (H1975 (EGFR L858R/T790M)): 10 to 100 nM; GI50 (HCC827 (EGFR dE746-A750)): 10 to 100 nM; GI50 (PC-9 (EGFR dE746-A750)): 10 to 100 nM; GI50 [1]: < 10 nM; GI50 (N87 (HER2 Amp)): 10 to 100 nM; GI50 (AU565 (Her2 amp)): 100 to 1000 nM; GI50 (SK-BR-3 (Her2 amp)): 10 to 100 nM; GI50 [2]: 100 to 1000 nM; GI50 (A549 (EGFR WT)): > 1000 nM; GI50 [3]: > 1000 nM; GI50 [4]: > 1000 nM
C#Cc1cccc(Nc2cc(Nc3cc(NC(=O)C=C)c(N(C)CCN(C)C)cc3OC)ncn2)c1 [Compound 135, N-(5-(6-(3-alkynyl-phenylamino)-pyrimidin-4-ylamino)-2-((2-dimethylamino-ethyl)-methyl-amino)-4-methoxyl-phenyl)-acrylamide]	< 10	< 10	< 10	< 10	10 to 100	< 10	< 10	10 to 100	> 1000	> 1000	> 1000	–
C=CC(=O)Nc1cc(Nc2nccc(-n3ccc4ccc(C)cc43)n2)c(OC)cc1N(C)CCN(C)C [Compound 59]	10 to 100	10 to 100	10 to 100	10 to 100	100 to 1000	100 to 1000	100 to 1000	100 to 1000	> 1000	> 1000	> 1000	–
C=CC(=O)Nc1cc(Nc2nccc(-n3ccc4ccc(OC)cc43)n2)c(OC)cc1N(C)CCN(C)C [Compound 58]	10 to 100	10 to 100	10 to 100	10 to 100	100 to 1000	100 to 1000	100 to 1000	100 to 1000	> 1000	> 1000	> 1000	–
C=CC(=O)Nc1cc(Nc2ncnc(Nc3cccc(Cl)c3F)n2)c(OC)cc1N(C)CCN(C)C [Compound 110, N-(5-(4-(3-chloro-2-fluoro-phenylamino)-[1,3,5]triazin-2-ylamino)-2-((2-dimethylamino-ethyl)-methyl-amino)-4-methoxyl-phenyl)-acrylamide]	10 to 100	< 10	< 10	< 10	< 10	10 to 100	10 to 100	100 to 1000	> 1000	> 1000	> 1000	–
C=CC(=O)Nc1cc(Nc2cc(-c3cn(C)c4ccccc34)ncn2)c(OC)cc1N(C)CCN1CCCC1 [Compound 178, N-(4-methoxyl-5-(6-(1-methyl-1H-indol-3-yl)-pyrimidin-4-ylamino)-2-(methyl-(2-pyrrolidin-1-yl-ethyl)-amino)-phenyl)-acrylamide]	10 to 100	< 10	< 10	10 to 100	10 to 100	100 to 1000	100 to 1000	100 to 1000	> 1000	> 1000	> 1000	–
C=CC(=O)Nc1cc(Nc2nccc(N3CCc4ccccc43)n2)c(OC)cc1N(C)CCN(C)C [Compound 31]	10 to 100	10 to 100	10 to 100	< 10	100 to 1000	100 to 1000	100 to 1000	100 to 1000	> 1000	> 1000	> 1000	–
C=CC(=O)Nc1cc(Nc2nccc(Nc3cccc(F)c3)n2)c(OC)cc1N(C)CCN(C)C [Compound 3, N-(5-(4-(3-fluoro-phenylamino)-pyrimidin-2-ylamino)-2-(2-(dimethylamino-ethyl)-methyl-amino)-4-methoxyl-phenyl)-acrylamide]	10 to 100	< 10	< 10	< 10	10 to 100	10 to 100	10 to 100	100 to 1000	> 1000	> 1000	> 1000	–
C=CC(=O)Nc1cc(Nc2nccc(-n3cc(C)c4ccccc43)n2)c(OC)cc1N(C)CCN(C)C [Compound 57, N-(5-(4-(3-methyl-1H-indol-1-yl)-pyrimidin-2-ylamino)-2-(2-(dimethylamino-ethyl)-methyl-amino)-4-methoxyl-phenyl)-acrylamide]	10 to 100	10 to 100	100 to 1000	10 to 100	100 to 1000	100 to 1000	100 to 1000	100 to 1000	> 1000	> 1000	> 1000	–
C=CC(=O)Nc1cc(Nc2cc(Nc3cccc(Br)c3)ncn2)c(OC)cc1N(C)CCN(C)C [Compound 133, N-(5-(6-(3-bromophenylamino)-pyrimidin-4-ylamino)-2-((2-dimethylamino-ethyl)-methyl-amino)-4-methoxyl-phenyl)-acrylamide]	< 10	< 10	< 10	< 10	< 10	< 10	< 10	10 to 100	> 1000	> 1000	> 1000	–
C=CC(=O)Nc1cc(Nc2cc(Nc3cccc(C(F)(F)F)c3)ncn2)c(OC)cc1N(C)CCN(C)C [Compound 134]	10 to 100	< 10	< 10	10 to 100	10 to 100	10 to 100	10 to 100	100 to 1000	> 1000	> 1000	> 1000	–
C=CC(=O)Nc1cc(Nc2nccc(-n3ccc4cc(C)ccc43)n2)c(OC)cc1N(C)CCN(C)C [Compound 77, N-(5-(4-(5-methyl-1H-indol-1-yl)-pyrimidin-2-ylamino)-2-((2-dimethylamino-ethyl)-methyl-amino)-4-methoxyl-phenyl)-acrylamide]	10 to 100	100 to 1000	100 to 1000	10 to 100	100 to 1000	100 to 1000	100 to 1000	100 to 1000	> 1000	> 1000	> 1000	–
